Laboratory results: ChEMBL document CHEMBL4184275 (Bioorg Med Chem Lett, 2018)
Bridge positions count the residues as written; N and C are the ends. Peptide text beside a SMILES is read from it.

How the values were obtained:
HL-60 = test: cells; conditions: Homo sapiens
Description: Antiproliferative activity against human HL60 cells

Prolyl endopeptidase = target: T1, Prolyl endopeptidase (Homo sapiens, UniProt P48147); test: Inhibition of prolyl oligopeptidase (unknown origin)
T1 sequence (P48147 whole entry): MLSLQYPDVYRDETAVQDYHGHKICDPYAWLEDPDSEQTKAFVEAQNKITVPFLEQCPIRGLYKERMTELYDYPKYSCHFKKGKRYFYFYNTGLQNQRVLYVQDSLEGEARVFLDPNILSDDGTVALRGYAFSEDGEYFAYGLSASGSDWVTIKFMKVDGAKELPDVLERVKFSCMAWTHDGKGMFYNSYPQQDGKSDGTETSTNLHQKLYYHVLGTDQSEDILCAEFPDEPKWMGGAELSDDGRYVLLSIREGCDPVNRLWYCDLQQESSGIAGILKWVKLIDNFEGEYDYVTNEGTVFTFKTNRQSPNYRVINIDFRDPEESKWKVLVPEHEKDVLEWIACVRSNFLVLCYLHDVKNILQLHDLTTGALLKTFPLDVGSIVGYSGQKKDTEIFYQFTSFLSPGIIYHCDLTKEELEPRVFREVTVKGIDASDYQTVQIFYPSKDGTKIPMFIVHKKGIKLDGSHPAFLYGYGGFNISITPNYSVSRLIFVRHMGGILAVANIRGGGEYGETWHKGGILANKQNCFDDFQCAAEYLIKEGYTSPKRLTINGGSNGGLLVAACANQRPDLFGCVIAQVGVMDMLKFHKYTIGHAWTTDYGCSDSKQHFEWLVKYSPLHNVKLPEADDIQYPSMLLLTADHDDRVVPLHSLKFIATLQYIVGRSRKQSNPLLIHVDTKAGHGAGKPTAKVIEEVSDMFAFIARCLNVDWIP

[1] = target: T2, Prolyl oligopeptidase family protein (Flavobacterium psychrophilum (strain JIP02/86 / ATCC 49511), UniProt A6H249); test: Inhibition of Flavobacterium POP preincubated for 5 mins followed by Z-Gly-Pro-pNA substrate measured after 30 mins
T2 sequence (A6H249 whole entry): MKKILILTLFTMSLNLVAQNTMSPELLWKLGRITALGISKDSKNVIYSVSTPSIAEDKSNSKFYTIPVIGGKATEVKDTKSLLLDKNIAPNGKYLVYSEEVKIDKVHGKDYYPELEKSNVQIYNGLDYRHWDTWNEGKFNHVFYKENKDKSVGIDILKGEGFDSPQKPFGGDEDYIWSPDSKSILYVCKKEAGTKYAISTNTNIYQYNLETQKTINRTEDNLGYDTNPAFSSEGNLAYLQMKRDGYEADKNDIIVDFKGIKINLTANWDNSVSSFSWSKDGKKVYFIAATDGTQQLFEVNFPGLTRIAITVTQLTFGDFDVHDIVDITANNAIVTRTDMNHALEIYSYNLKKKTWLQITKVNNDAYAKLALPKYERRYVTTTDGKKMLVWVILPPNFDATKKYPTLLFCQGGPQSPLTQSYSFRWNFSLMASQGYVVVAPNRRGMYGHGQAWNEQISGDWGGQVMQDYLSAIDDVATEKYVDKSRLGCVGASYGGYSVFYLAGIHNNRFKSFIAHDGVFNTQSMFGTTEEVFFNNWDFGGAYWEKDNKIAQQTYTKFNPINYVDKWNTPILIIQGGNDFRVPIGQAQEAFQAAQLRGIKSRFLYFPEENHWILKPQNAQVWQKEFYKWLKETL

MCF7 = test: Antiproliferative activity against human MCF7 cells; type: functional, cell-based

| IC50 (HL-60) [µM] | IC50 (Prolyl endopeptidase) [µM] | IC50 [1] [µM] | IC50 (MCF7) [µM] | Structure (SMILES) |
| --- | --- | --- | --- | --- |
| > 20 | 0.95 |  |  | CC[C@H](C)[C@H](NC(=O)[C@H](Cc1ccccc1)NC(=O)[C@@H](NC(=O)[C@H](Cc1cnc[nH]1)NC(=O)CNC(=O)CNC(=O)[C@H](Cc1ccccc1)NC(=O)[C@H](CC(C)C)NC(=O)[C@@H]1CC(=O)NCC(=O)N[C@@H](Cc2ccc(O)cc2)C(=O)N2CCC[C@H]2C(=O)N[C@@H](Cc2c[nH]c3ccccc23)C(=O)N[C@@H](Cc2c[nH]c3ccccc23)C(=O)N[C@@H](CC(=O)O)C(=O)N[C@@H](Cc2ccc(O)cc2)C(=O)N[C@@H](CCCNC(=N)N)C(=O)N1)[C@@H](C)O)C(=O)N[C@@H](CO)C(=O)N1CCC[C@H]1C(=O)O (GYPWWDYRDLFGGHTFISP-OH; lactam N-9) |
| 2 |  | 0.77 | 26.9 | CC(=O)Oc1c(OC(C)=O)c2c3cc(O)c(O)cc3oc2c2oc3cc(O)c(O)cc3c12 |
| 1.1 |  | 1.2 | 35.1 | CC(=O)Oc1c2oc3cc(O)c(O)cc3c2c(OC(C)=O)c2oc3cc(O)c(O)cc3c12 [POLYOZELLIN] |

| Structure (SMILES) | IC50 (HL-60) [µM] | IC50 (Prolyl endopeptidase) [µM] | IC50 [1] [µM] | IC50 (MCF7) [µM] |
| --- | --- | --- | --- | --- |
| CC[C@@]1(O)C(=O)OCc2c1cc1n(c2=O)Cc2cc3ccccc3nc2-1 [CAMPTOTHECIN] | 0.0067 |  |  |  |
